Source: patent US6514747B2 (UT-Battelle, LLC, priority 1993, dated 2003)

Assays:
L6 skeletal myocytes = test: [Ca2+]i in L6 skeletal myocytes (fura 2); assay type: cell-based
3T3-L1 adipocytes = test: lipogenesis in 3T3-L1 adipocytes (FAS and SCD mRNA, FAS activity, triglyceride content); assay type: cell-based; conditions: nitrendipine alone
[1] = test system: aP212 and aP273 transgenic mice; test: daily insulin injections in aP2-agouti transgenic mice; assay type: in vivo, mouse
Procedure: All mice were maintained at Oak Ridge National Laboratory. The FVB/N mice were obtained from random-bred stock. All mice were fed a diet containing 11% fat by weight (Mouse Diet 5015; Purina), weaned at 4 wk of age, and subsequently weighed monthly. Food and water were obtained from ad libitum. All data are from mice that are hemizygous for the transgene.
Plasma and serum were obtained by retro-orbital sinus puncture from nonfasted mice between 9 am and 11 am. Plasma insulin levels were measured by radioimmunoassay (ICN) with porcine insulin as a standard. Blood glucose concentrations were determined by blood sampling from the tail vein followed by quantification via One-Touch™ glucose determination system (Johnson & Johnson).
Six- to ten-wk-old male mice were subcutaneously injected between 11 am and noon with Humulin U ultralente (Eli Lilly, Indianapolis, Ind.) at a daily dose of 0.5, 1, or 2 units/day per mouse. Insulin (100 units/ml) was diluted before injection with phosphate-buffered saline so that all mice received a 200-μl injection. A 1-ml syringe was filled with […] of the diluted insulin solution. To keep the insulin suspension as uniform as possible, it was mixed between each injection via plunger action.

untransfected 293 cells = test: adenylyl cyclase assay in untransfected 293 cells; assay type: cell-based, human; conditions: untransfected 293 cells
Procedure: 293 cells (5×10^5) and 293 cells expressing human TSH-R were preloaded with 5 μCi ^3H-adenine for 1.5 h at 37° C. in a 5% CO2 incubator.
Medium was aspirated and 2.5% perchloric acid containing 0.1 mM cAMP was used to stop the incubation. Adenylyl cyclase activity was calculated by determining the percent conversion of ^3H-adenine to ^3H-cAMP as described (Salomon, 1991; Johnson and Salomon, 1991). Correlation of cAMP accumulation measured in this assay with actual adenylyl cyclase activity is made under the assumption that isobutymethylxanthine effectively blocks cAMP degradation. Data represent means and standard deviations from triplicate data points.

[2] = target: T1, human melanocortin 3 receptor (hMC3R) (Homo sapiens, UniProt P41968); test: [Ca2+]i in HEK-293 cells transfected with hMC3R; assay type: cell-based; conditions: 20 nM agouti, n = 8
T1 construct: The coding region of the human melanocortin 1, 3, and 5 receptor (hMC1R, hMC3R, and hMC5R) genes was amplified; expressed in transfected cells; host or cells: HEK-293 cells, cotransfected with pMT4 construct and pRSV-Neo, geneticin-selected clones
T1 sequence (P41968 whole entry): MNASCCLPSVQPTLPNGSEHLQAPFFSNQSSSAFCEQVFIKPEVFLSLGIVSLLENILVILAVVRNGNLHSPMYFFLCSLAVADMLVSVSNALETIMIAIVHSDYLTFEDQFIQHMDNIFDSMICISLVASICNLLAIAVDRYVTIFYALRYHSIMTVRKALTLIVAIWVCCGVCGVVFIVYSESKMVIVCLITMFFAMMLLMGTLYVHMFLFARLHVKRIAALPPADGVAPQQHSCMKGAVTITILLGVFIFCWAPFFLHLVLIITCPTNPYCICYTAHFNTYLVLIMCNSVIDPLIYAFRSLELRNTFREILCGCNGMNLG
Procedure: [Ca^2+]i was measured in L6, A7r5, and HEK-293 cells (Zemel et al., 1995) as previously described and in 3T3-L1 cells as described by Klip and Ramlal (1987). Monolayers of nonfused L6 cells and confluent A7r5 cells after 14-16 h of starvation in a serum-free culture medium were rinsed with Hanks' balanced salt solution (HBSS), detached by incubation in 2 ml trypsin (0.05%) for 2-3 min at 37° C., and released by pipetting without trypsinization. Cells were harvested by centrifugation at 50 g and resuspended in 1 ml HBSS at a density of ˜10^6 cells/ml. For 3T3-L1 cells, monolayers of differentiated adipocytes were rinsed with serum-free DMEM and exposed to 0.05% trypsin for 3 min. The solution was decanted, and the cells were incubated for 3 min in culture medium. Cells were detached by pipetting and collected by centrifugation at 50 g. Cells were then incubated in culture medium to recover for 1 h followed by incubation in serum-free DMEM for 4 h at 37° C. in an atmosphere of 5% CO2, collected by centrifugation, and resuspended in HBSS at a density of ˜10^6 cells/ml. […] [Ca^2+]i levels were then measured fluorometrically in suspensions using dual excitation (340 and 380 nm)-single emission (510 nm) fluorometry as previously described (Zemel et al., 1995). [Ca^2+]i was then calculated by the computer in the fluorometer with the equation of Grynkiewicz et al. (1985). […]

[3] = test system: isolated human adipocytes; test: [Ca2+]i in isolated human adipocytes; assay type: cell-based
[4] = target: T2, human melanocortin 1 receptor (hMC1R) (Homo sapiens, UniProt Q01726); test: [Ca2+]i in HEK-293 cells transfected with hMC1R; assay type: cell-based; conditions: 20 nM agouti, n = 8
T2 construct: The coding region of the human melanocortin 1, 3, and 5 receptor (hMC1R, hMC3R, and hMC5R) genes was amplified; expressed in transfected cells; host or cells: HEK-293 cells, cotransfected with pMT4 construct and pRSV-Neo, geneticin-selected clones
T2 sequence (Q01726 whole entry): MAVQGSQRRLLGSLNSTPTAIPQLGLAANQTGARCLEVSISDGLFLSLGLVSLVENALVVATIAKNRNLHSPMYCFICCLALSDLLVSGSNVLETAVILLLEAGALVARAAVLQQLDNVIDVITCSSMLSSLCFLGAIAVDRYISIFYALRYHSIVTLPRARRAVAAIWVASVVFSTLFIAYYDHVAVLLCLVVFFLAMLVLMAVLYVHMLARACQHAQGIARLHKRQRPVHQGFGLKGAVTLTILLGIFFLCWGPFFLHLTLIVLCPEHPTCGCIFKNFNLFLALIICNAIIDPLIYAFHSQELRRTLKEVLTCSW
Procedure: The coding region of the human melanocortin 1, 3, and 5 receptor (hMC1R, hMC3R, and hMC5R) genes was amplified by polymerase chain reaction and subcloned into the vector pMT4, and the sequence was verified. HEK-293 cells, which appear to lack endogenous melanocortin receptors (Lu et al., 1994), were cotransfected with pMT4 and pRSV-Neo by either calcium phosphate coprecipitation method or the use of Transfectam reagent (Promega). Clones were selected using 600 μg geneticin/ml. culture medium.
[Ca^2+]i was measured in L6, A7r5, and HEK-293 cells (Zemel et al., 1995) as previously described and in 3T3-L1 cells as described by Klip and Ramlal (1987). Monolayers of nonfused L6 cells and confluent A7r5 cells after 14-16 h of starvation in a serum-free culture medium were rinsed with Hanks' balanced salt solution (HBSS), detached by incubation in 2 ml trypsin (0.05%) for 2-3 min at 37° C., and released by pipetting without trypsinization. Cells were harvested by centrifugation at 50 g and resuspended in 1 ml HBSS at a density of ˜10^6 cells/ml. For 3T3-L1 cells, monolayers of differentiated adipocytes were rinsed with serum-free DMEM and exposed to 0.05% trypsin for 3 min. The solution was decanted, and the cells were incubated for 3 min in culture medium. Cells were detached by pipetting and collected by centrifugation at 50 g. Cells were then incubated in culture medium to recover for 1 h followed by incubation in serum-free DMEM for 4 h at 37° C. in an atmosphere of 5% CO2, collected by centrifugation, and resuspended in HBSS at a density of ˜10^6 cells/ml. Cell suspensions were chilled on ice for 5 min and loaded with […] (final concn) fura 2 acetoxymethyl ester (AM; Sigma) in the dark for 20 min at 37° C. For 3T3-L1 adipocytes, the chilling step was skipped. […] [Ca^2+]i levels were then measured fluorometrically in suspensions using dual excitation (340 and 380 nm)-single emission (510 nm) fluorometry as previously described (Zemel et al., 1995). [Ca^2+]i was then calculated by the computer in the fluorometer with the equation of Grynkiewicz et al. (1985). […]

## CCOC(=O)C1=C(C)NC(C)=C(C(=O)OC)C1c1cccc([N+](=O)[O-])c1 (stereo not drawn) [nitrendipine, reference compound]
L6 skeletal myocytes; 30 μM nitrendipine
  reduction of [Ca2+]i response to 50 nM agouti: ~50%
L6 skeletal myocytes; with 30 μM nitrendipine
  [Ca2+]i response to 50 nM agouti: 22 ± 6 nM
3T3-L1 adipocytes
  effect on FAS activity or triglyceride content: no effect

## insulin: Humulin U ultralente (Eli Lilly), injected subcutaneously
[1]; 1 unit per mouse s.c., aP212 mice and littermates
  time for blood glucose levels to return to normal after insulin injection: ≤ 24 h
[1]; 2 units of insulin per day per mouse s.c., 7 days
  average rate of weight gain, insulin-injected transgenic mice vs control mice: 1.7 fold

## α-melanocyte-stimulating hormone [α-MSH, reference compound]
Untransfected 293 cells
  effect on the cAMP pathway: no effect

B1: human agouti: recombinant human agouti protein (132 amino acids, SEQ ID NO:4) produced in baculovirus-infected T. ni cells (protein)
chain: MDVTRLLLATLLVFLCFFTANSHLPPEEKLRDDRSLRSNSSVNLLDVPSVSIVALNKKSKQIGRKAAEKKRSSKKEASMKKVVRPRTPLSAPCVATRNSCKPPAPACCDPCASCQCRFFRSACSCRVLSLNC
modifications: Homo sapien
[2]
  [Ca2+]i Increase over Baseline: 77 ± 14
[3]
  [Ca2+]i: stimulate an increase
[4]
  [Ca2+]i Increase over Baseline: 57 ± 9
